Results: patent US8822517B2, “Arylosulfonamides for the treatment of CNS diseases” (Adamed SP. Z O.O., priority 2010, dated 2014)

Legend:
[1] = target: T1, serotonine transporter (SERT) receptor (Homo sapiens, UniProt P31645); assay: Binding assay SERT (h), [3H]imipramine, CHO cells; conditions: read-out: SERT [%]
T1 construct: expressed in transfected cells; host or cells: CHO cells
In short: (§1)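 Binding read by scintillation counting. Non-specific component defined by excess unlabelled ligand and removed from total counts. Compounds at 1×10^−6 M.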

sigma σ receptor = assay: Binding assay σ (non-selective), [3H]DTG, rat cerebral cortex; conditions: percent inhibition of control specific binding; compounds tested at 1×10^−6 M
In short: as §1

adrenergic α1 receptor = assay: Binding assay α1 (non-selective), [3H]prazosin, rat cerebral cortex; conditions: percent inhibition of control specific binding; compounds tested at 1×10^−6 M
In short: as §1

muscarinic M3 receptor = target: T2, muscarinic M3 receptor (Homo sapiens, UniProt P20309); assay: Binding assay M3 (h), [3H]4-DAMP, CHO cells; conditions: read-out: M3 [%]
T2 construct: expressed in transfected cells; host or cells: CHO cells
In short: as §1

[2] = target: T3, serotoninergic receptor 5-HT2C (Homo sapiens, UniProt P28335); assay: Binding assay 5-HT2C (h), [3H]mesulergine, HEK-293 cells; conditions: read-out: 5-HT2C [%]
T3 construct: expressed in transfected cells; host or cells: HEK-293 cells
T3 sequence (P28335 33-458): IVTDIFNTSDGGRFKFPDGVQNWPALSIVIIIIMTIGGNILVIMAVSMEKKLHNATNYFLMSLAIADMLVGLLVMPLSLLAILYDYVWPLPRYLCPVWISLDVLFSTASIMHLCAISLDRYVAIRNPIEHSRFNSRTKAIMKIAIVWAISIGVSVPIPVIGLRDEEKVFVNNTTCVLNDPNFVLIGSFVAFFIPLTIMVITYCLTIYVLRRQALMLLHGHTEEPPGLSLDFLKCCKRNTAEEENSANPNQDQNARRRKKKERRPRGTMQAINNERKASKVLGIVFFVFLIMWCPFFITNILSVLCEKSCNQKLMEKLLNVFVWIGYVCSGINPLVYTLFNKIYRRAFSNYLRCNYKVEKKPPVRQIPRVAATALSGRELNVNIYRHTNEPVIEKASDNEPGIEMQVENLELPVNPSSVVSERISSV
In short: as §1

dopaminergic D3 receptor = dopaminergic D3 receptor (Homo sapiens, UniProt P35462); assay: Binding assay D3 (h), [3H]methyl-spiperone, CHO cells; parameters: expressed in transfected cells; host or cells: CHO cells; conditions: read-out: D3 [%]
In short: as §1

[3] = target: serotoninergic 5-HT6 receptor (Homo sapiens, UniProt P50406); assay: Binding assay 5-HT6 (h), [3H]LSD, CHO cells; parameters: expressed in transfected cells; host or cells: CHO cells; conditions: read-out: 5-HT6
In short: as §1

[4] = target: serotoninergic 5-HT7 receptor (Homo sapiens, UniProt P34969); assay: Binding assay 5-HT7 (h), [3H]LSD, CHO cells; parameters: expressed in transfected cells; host or cells: CHO cells; conditions: read-out: 5-HT7
In short: as §1

adrenergic α2C receptor = target: T4, adrenergic α2C receptor (Homo sapiens, UniProt P18825); assay: Binding assay α2C (h), [3H]RX 821002, CHO cells; parameters: expressed in transfected cells; host or cells: CHO cells; conditions: read-out: α2C [%]
T4 sequence (P18825 1-462): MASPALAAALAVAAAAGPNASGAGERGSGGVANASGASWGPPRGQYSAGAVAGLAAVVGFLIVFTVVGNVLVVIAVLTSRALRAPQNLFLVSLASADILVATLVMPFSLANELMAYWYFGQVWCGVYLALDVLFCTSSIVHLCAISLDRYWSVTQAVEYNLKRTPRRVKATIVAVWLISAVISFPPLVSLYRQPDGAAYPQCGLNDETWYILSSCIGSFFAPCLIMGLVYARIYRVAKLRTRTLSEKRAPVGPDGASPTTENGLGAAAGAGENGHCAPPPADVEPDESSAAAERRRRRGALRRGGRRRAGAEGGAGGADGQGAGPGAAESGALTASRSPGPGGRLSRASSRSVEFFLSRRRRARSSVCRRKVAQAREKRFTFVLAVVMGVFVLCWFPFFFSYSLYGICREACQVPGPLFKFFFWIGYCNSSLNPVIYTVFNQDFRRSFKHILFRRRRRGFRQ
In short: as §1

dopaminergic D2 receptor = dopaminergic D2 receptor (Homo sapiens, UniProt P14416); assay: Binding assay D2S (h), [3H]methyl-spiperone, HEK-293 cells; parameters: expressed in transfected cells; host or cells: HEK-293 cells; conditions: read-out: D2 [%]
In short: as §1

[5] = target: T5, serotoninergic 5-HT1A receptor (Homo sapiens, UniProt P08908); assay: Binding assay 5-HT1A (h), [3H]8-OH-DPAT, HEK-293 cells; parameters: expressed in transfected cells; host or cells: HEK-293 cells; conditions: read-out: 5-HT1A
T5 sequence (P08908 1-422): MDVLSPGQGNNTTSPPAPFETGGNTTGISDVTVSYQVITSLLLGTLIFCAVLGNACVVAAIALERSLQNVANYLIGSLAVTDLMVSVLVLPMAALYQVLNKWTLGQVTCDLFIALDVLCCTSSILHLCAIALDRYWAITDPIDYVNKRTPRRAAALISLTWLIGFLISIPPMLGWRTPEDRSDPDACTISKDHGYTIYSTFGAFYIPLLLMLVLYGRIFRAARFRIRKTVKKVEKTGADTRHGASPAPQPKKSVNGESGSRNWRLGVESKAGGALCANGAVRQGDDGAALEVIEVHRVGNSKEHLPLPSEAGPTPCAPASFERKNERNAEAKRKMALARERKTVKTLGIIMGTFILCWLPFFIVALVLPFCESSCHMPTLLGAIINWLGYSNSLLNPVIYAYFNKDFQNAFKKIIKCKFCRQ
In short: as §1

[6] = target: serotoninergic 5-HT2A receptor (Homo sapiens, UniProt P28223); assay: Binding assay 5-HT2A (h), [3H]ketanserin, HEK-293 cells; parameters: expressed in transfected cells; host or cells: HEK-293 cells; conditions: read-out: 5-HT2A
In short: as §1

[7] = target: histaminergic H1 receptor (Homo sapiens, UniProt P35367); assay: Binding assay H1 (h), [3H]pyrilamine, HEK-293 cells; parameters: expressed in transfected cells; host or cells: HEK-293 cells; conditions: read-out: H1 [%]
In short: as §1

T1 sequence (P31645 whole entry): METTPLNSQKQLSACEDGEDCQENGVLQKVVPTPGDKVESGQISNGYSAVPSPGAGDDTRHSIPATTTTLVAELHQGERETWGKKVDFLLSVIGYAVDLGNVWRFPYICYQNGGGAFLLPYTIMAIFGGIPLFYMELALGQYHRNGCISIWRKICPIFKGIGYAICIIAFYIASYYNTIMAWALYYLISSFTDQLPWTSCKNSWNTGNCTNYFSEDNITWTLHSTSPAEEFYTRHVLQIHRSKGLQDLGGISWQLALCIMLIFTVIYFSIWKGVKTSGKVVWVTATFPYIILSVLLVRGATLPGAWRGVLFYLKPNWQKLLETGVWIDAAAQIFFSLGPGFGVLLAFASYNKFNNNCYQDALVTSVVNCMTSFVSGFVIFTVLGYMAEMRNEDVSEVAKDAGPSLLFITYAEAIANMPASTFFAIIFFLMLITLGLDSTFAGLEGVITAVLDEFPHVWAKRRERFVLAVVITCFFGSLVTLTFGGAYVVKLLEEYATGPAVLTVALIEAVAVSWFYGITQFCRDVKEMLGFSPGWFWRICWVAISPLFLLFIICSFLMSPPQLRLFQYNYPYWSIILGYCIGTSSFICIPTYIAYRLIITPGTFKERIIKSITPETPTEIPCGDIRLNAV
dopaminergic D2 receptor, sequence (P14416 1-414 isoform P14416-2): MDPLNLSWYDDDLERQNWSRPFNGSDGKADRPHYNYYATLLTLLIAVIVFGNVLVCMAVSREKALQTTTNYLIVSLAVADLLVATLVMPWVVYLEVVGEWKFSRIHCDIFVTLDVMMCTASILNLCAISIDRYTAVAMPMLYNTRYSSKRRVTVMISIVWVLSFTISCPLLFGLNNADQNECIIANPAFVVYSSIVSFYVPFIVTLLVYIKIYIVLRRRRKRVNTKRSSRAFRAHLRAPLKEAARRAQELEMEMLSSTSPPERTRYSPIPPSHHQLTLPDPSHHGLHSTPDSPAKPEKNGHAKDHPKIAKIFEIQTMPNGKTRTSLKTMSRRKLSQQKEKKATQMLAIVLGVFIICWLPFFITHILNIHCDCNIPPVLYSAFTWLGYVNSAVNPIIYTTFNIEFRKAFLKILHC
serotoninergic 5-HT7 receptor, sequence (P34969 whole entry): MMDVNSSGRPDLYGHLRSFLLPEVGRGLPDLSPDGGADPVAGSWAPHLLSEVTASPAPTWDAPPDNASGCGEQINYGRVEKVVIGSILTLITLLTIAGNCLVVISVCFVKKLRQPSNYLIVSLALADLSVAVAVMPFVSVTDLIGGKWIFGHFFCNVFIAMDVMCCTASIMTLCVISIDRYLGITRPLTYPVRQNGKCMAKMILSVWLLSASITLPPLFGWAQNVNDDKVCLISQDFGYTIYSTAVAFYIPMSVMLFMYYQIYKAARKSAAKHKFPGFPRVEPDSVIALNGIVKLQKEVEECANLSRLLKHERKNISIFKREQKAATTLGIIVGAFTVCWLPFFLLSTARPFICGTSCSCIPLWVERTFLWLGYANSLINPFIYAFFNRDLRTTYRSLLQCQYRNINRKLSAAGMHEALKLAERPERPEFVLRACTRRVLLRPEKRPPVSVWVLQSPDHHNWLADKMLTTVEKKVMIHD
dopaminergic D3 receptor, sequence (P35462 whole entry): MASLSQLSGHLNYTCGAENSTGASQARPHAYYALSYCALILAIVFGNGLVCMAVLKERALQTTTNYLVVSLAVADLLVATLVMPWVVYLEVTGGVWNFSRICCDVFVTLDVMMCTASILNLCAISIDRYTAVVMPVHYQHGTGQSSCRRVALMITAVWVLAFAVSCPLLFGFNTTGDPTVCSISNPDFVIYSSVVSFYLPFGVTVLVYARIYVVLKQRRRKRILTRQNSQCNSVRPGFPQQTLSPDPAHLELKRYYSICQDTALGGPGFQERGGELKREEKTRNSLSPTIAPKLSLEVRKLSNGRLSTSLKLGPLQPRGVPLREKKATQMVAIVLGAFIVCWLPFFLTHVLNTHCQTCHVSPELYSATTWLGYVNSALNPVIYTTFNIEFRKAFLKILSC
serotoninergic 5-HT6 receptor, sequence (P50406 whole entry): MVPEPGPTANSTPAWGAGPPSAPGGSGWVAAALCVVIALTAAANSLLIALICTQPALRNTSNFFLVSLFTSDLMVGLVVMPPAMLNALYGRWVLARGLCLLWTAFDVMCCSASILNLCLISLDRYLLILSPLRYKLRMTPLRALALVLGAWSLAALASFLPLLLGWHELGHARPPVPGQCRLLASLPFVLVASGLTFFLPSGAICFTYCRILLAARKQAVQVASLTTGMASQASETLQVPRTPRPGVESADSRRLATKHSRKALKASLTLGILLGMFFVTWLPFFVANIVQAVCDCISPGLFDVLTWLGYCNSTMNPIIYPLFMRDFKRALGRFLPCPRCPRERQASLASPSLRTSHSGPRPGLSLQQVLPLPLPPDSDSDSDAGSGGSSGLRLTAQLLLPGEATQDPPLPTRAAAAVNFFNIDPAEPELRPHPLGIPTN
histaminergic H1 receptor, sequence (P35367 whole entry): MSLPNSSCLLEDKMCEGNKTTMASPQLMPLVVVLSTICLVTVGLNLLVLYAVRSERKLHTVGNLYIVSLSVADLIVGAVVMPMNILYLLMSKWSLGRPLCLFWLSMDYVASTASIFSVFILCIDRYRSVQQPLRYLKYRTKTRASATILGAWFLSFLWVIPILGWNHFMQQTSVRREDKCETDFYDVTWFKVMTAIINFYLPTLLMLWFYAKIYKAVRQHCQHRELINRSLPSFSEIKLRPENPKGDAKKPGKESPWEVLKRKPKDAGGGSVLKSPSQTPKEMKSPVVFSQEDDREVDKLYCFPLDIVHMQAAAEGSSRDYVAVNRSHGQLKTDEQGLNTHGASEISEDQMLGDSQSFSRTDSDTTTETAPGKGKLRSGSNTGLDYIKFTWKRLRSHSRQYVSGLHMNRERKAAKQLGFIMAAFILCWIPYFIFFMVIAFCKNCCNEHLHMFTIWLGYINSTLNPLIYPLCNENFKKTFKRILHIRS
serotoninergic 5-HT2A receptor, sequence (P28223 whole entry): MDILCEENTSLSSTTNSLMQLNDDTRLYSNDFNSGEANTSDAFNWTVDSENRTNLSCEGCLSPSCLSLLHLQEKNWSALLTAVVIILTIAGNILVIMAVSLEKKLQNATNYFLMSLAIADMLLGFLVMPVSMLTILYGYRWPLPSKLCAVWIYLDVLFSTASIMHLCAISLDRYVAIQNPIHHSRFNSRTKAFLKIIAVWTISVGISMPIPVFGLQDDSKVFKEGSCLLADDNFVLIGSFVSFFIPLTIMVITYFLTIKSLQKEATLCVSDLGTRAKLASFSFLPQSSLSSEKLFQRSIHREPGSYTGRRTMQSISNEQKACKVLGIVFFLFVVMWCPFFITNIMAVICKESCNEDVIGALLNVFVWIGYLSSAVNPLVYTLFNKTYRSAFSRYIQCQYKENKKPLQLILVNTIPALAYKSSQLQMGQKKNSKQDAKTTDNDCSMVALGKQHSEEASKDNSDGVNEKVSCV
T2 sequence (P20309 whole entry): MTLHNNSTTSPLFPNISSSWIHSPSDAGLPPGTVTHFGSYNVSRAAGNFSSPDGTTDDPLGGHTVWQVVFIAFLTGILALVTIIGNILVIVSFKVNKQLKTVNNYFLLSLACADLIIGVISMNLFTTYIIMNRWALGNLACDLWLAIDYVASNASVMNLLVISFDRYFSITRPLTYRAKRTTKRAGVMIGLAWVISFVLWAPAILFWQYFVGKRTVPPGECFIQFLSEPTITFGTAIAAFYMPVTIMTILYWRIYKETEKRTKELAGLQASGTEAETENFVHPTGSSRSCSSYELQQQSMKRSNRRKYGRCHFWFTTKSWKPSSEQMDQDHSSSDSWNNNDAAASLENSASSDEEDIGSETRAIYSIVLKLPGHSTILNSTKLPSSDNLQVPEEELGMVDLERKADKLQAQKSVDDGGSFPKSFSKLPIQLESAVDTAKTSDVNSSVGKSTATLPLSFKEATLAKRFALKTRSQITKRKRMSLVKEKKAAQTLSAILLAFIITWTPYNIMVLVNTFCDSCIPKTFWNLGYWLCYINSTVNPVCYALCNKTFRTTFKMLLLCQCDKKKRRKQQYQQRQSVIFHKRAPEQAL

Row | SMILES | inhibition at 1 µM [1] | σ [%] (sigma σ receptor) | α1 [%] (adrenergic α1 receptor) | inhibition at 1 µM (muscarinic M3 receptor) | inhibition at 1 µM [2] | inhibition at 1 µM (dopaminergic D3 receptor) | inhibition at 1 µM [3] | inhibition at 1 µM [4] | inhibition at 1 µM (adrenergic α2C receptor) | inhibition at 1 µM (dopaminergic D2 receptor) | inhibition at 1 µM [5] | inhibition at 1 µM [6] | inhibition at 1 µM [7]
1 | O=S(=O)(NCCCN1CCN(c2nsc3ccccc23)CC1)c1cc2ccccc2s1 [Compound 262, N-[3-[4-(1,2-Benzothiazol-3-yl)piperazin-1-yl]propyl]benzothiophene-2-sulphonamide] | 87% | 51% | 95% | 19% | 84% | 98% | 93% | 99% | 94% | 98% | 99% | 102% | 95%
2 | O=S(=O)(NCCCN1CCN(c2nsc3ccccc23)CC1)c1csc2ccccc12 [Compound 263, N-[3-[4-(1,2-Benzothiazol-3-yl)piperazin-1-yl]propyl]benzothiophene-3-sulphonamide] | 87% | 49% | 90% | 7% | 87% | 98% | 96% | 98% | 93% | 98% | 98% | 102% | 93%
3 | O=S(=O)(NCCCN1CCN(c2nsc3ccccc23)CC1)c1cccc2scnc12 [Compound 267, N-[3-[4-(1,2-Benzothiazol-3-yl)piperazin-1-yl]propyl]-1,3-benzothiazole-4-sulphonamide] | 91% | 50% | 97% | 13% | 78% | 99% | 95% | 100% | 99% | 100% | 98% | 101% | 92%
4 | O=S(=O)(NCCCN1CCN(c2nsc3ccccc23)CC1)c1ccc2cn[nH]c2c1 [Compound 268, N-[3-[4-(1,2-Benzothiazol-3-yl)piperazin-1-yl]propyl]-1H-indazole-6-sulphonamide] | 86% | 30% | 90% | 14% | 78% | 98% | 93% | 99% | 99% | 98% | 98% | 102% | 95%
5 | O=S(=O)(NCCCN1CCN(c2nsc3ccccc23)CC1)c1ccc2c(c1)OCO2 [Compound 269, N-[3-[4-(1,2-Benzothiazol-3-yl)piperazin-1-yl]propyl]-1,3-benzodioxole-5-sulphonamide] | 96% | 49% | 97% | 20% | 92% | 100% | 98% | 101% | 101% | 99% | 99% | 101% | 92%
